Our source for the IC50 values is US10344017B2, “Pyrrolcarboxamide derivatives for the inhibition of ERK5” (CANCER RESEARCH TECHNOLOGY LIMITED, priority 2014, dated 2019).

SMILES strings stand for the structures. Like-named read-outs stand apart in the source and are kept apart here.

The target in one experiment is T1, ERK5 (Homo sapiens, UniProt Q13164).
T1 construct: made in house
In words: ERK5 IMAP assay (fluorescence polarisation). It counts as biochemical.

Experiment [1] relates to HA-ERK5-ΔP493 (MEK5D-activated, MEF2D-Gal4/Gal4-Luc reporter) in HEK293T cells. In words: Truncated dual-luciferase reporter assay, HEK293T forward transfection. It counts as cell-based. To be noted: Homo sapiens, HEK-293T, average where more than one data point, read-out: Truncated ERK 5 Reporter Assay. The protocol:
Truncated Dual-Luciferase Reporter Assay
HEK293T and HeLa Forward Transfection
Constitutively-active, EGFP-tagged MEK5 (EGFP-MEK5D; 0.5 μg/μl), an EGFP-tagged construct containing no MEK5D (EGFP-C3; 0.5 μg/μl), and HA-tagged ERK5 with C-terminal truncation (HA-ERK5-ΔP493; 0.51 μg/μl) were diluted separately in sterile distilled water. Plasmid DNA and Lipofectamine 2000 (Invitrogen) were separately diluted in Opti-MEM growth media (reduced serum medium, Invitrogen), and incubated at room temperature for 5 min. Plasmid DNA (Tube A) and Lipofectamine 2000 (Tube B) were then combined and incubated for 20 min at room temperature to complex. Cells were then transfected by addition of 16 μl of the respective transfection mixture: 3 wells with EGFP-C3-containing (control) and 21 wells with MEK5D-containing transfection mixture (final volume, 100 μl). Cells were subsequently incubated for 4 h at 37° prior to addition of potential ERK5-inhibitory compounds.
Addition of Compounds to ERK5-Transfected HEK293T or HeLa Cells
Potential ERK5-inhibitory compounds were prepared as a 2× solution by addition of 2 μl compound (or DMSO as control) to 1 ml standard culture medium. Compounds were tested in triplicate at a concentration range of 0.003 μM, 0.01 μM, 0.03 μM, 0.1 μM, 0.3 μM and 1 μM (or 0.03 μM, 0.1 μM, 0.3 μM, 1 μM, 3 μM and 10 μM for BIX02189) by addition of 100 μl 2× solution to 100 μl transfected cells (final DMSO, 0.1% v/v). Cells were incubated for 24 h at 37° C.
Cell Lysis and Luciferase Quantification
After 24 h incubation in the absence (control) or presence of potential inhibitor, the culture medium was aspirated and cells lysed in 20 μl 1× passive lysis buffer (Dual-Luciferase Reporter Assay System, Promega) for a minimum of 15 min with agitation. Lysates were further processed immediately or stored at −80° C. Cellular inhibition of ERK5 was quantified using the Dual-Luciferase Reporter Assay System (Promega). Luciferase assay buffer/Luciferase assay substrate and Stop and Glo assay buffer/Stop and Glo substrate were prepared according to the manufacturer's instructions. Luciferase reagent (50 μl/well) was added immediately before luminescence detection using a FLUOstar Omega plate reader (BMG Labtech). Stop and Glo reagent (50 μl/well) was subsequently added, and the Renilla luciferase signal (transfection efficiency control) quantified.
The ERK5-specific signalling activity was calculated by subtraction of the EGFP-C3 luciferase signal from the EGFP-MEK5D-induced luminescence. Luminescence in the absence of potential ERK5 inhibitor (DMSO control) was taken as 100% ERK5 activity. […] Unless stated otherwise, data are mean±standard deviation of three independent experiments.
A general note: In a reporter assay the amount or activity of a reporter protein is the signal.

Experiment [2] concerns ERK5 (HA-ERK5 wt activated by EGFP-MEK5D, MEF2D-Gal4/Gal4-Luc reporter) in HEK293 cells. In words: Dual-luciferase reporter assay (ERK5 reporter), reverse-transfected HEK293 cells. To be noted: Homo sapiens, HEK293, read-out: ERK 5 Reporter Assay.
Description: Trypsinizing of Adherent Cell Colonies
Cells were regularly passaged in order to maintain optimum colony sizes on plates. In order to do this, and to harvest cells for use in the dual-luciferase reporter assay, adherent cells were lifted from tissue culture dishes. Cell media was removed via aspiration, and the cell monolayer was washed with phosphate buffered saline (PBS) solution (10 mL), which was then aspirated.
Reverse Transfection of HEK293 Cells
Preparation of EGFP Control (C3) Working Solution (for 1×96 Well Plate)
Preparation of HEK293 Cells for Reverse Transfection
Trypsinized HEK293 cells were re-suspended in 19 mL of fresh cell media and counted using haemocytometry. Cells were then diluted with fresh cell media to achieve a final cell concentration of 2×10^5 cells/mL. 1237.5 μL and 7425 μL of this cell media was added to the C3 and 5D working solutions respectively. 100 μL of the transfected cells were then aliquoted into the appropriate wells in a 96-well opaque sided tissue culture plate, and incubated at 37° C. for 6 h.
Addition of Compounds to HEK293 Cells
4 compounds was assayed per 96-well plate. For each compound, 1 mL of growth media was added to eight 1.5 mL Eppendorf® tubes. 6 μL of DMSO was added to two tubes for C3 and blank 5D wells, and 6 μL of the relevant compound stock solution was added to the 6 remaining tubes. […] Solutions of drug in media were thoroughly mixed, and 100 μL of the relevant compound was transferred (in triplicate) to the 96-well plate containing transfected HEK293 cells using an electronic multichannel pipette with variable tip spacing. Sealed plates were incubated at 37° C. for 24 h. Final compound concentrations were as follows; 30 μM, 10 μM, 3 μM, 1 μM and 0.3 μM.
15 mL of 1× passive lysis buffer (PLB) was prepared using 5×PLB (Dual-Luciferase Reporter Assay System, Promega® E1960), diluting with H2O. Assay plates prepared were removed from the incubator and the growth media removed by aspiration.
The mark [3] stands for this setting: average (e.g. geometric mean) where more than one data point, read-out: ERK5 IC50.

T1 sequence (Q13164 whole entry): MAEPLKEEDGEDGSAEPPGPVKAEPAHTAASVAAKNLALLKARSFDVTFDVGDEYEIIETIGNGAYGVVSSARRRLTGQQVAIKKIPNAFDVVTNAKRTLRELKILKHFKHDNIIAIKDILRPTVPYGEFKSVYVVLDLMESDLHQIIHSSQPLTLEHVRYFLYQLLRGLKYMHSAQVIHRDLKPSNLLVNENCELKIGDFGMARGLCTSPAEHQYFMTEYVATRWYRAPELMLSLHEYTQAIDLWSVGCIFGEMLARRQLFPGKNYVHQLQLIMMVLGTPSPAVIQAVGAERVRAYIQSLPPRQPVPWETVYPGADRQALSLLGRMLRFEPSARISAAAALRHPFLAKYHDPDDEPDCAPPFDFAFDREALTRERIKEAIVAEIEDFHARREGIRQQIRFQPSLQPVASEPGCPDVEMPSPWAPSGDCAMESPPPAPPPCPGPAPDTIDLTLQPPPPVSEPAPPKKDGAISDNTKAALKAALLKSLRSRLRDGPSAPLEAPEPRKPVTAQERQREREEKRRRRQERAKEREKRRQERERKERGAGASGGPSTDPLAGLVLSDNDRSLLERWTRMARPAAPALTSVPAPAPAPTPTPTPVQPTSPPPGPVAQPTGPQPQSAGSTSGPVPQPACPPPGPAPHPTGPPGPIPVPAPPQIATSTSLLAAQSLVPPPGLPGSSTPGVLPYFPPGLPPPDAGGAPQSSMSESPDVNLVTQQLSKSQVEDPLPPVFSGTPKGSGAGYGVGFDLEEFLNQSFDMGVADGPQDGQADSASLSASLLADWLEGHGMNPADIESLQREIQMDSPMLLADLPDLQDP

In the case of `O=C(Nc1cnc(CC2CCNCC2)nc1)c1cc(C(=O)c2c(Cl)ccc(Cl)c2F)c[nH]1` [Example 253, 4-(3,6-Dichloro-2-fluorobenzoyl)-N-(2-(piperidin-4-ylmethyl)pyrimidin-5-yl)-1H-pyrrole-2-carboxamide], the results for the IC50 (on ERK5 (setting [3]); in experiment [1]) were 7.5 nM and 239 nM, respectively.

Take `O=C(Nc1cnc(NCCN2CCCC2)nc1)c1cc(C(=O)c2c(Cl)ccc(Cl)c2F)c[nH]1` [Example 102, 4-(3,6-Dichloro-2-fluorobenzoyl)-N-(2-((2-(pyrrolidin-1-yl)ethyl)amino)pyrimidin-5-yl)-1H-pyrrole-2-carboxamide]: the IC50 on ERK5 (setting [3]) is 16.6 nM; in experiment [1], 85 nM.

As for `CC(C)(C)OC(=O)N1CCC(NC(=O)c2cc(C(=O)c3c(F)cccc3F)c[nH]2)CC1` [Example 123, tert-Butyl 4-(4-(2,6-difluorobenzoyl)-1H-pyrrole-2-carboxamido)piperidine-1-carboxylate], the IC50 on ERK5 (setting [3]) came out at 2860 nM; in experiment [2] it was 25000 nM.

On to `CS(=O)(=O)N1CCC(NC(=O)c2cc(C(=O)c3c(Cl)ccc(Cl)c3F)c[nH]2)CC1` [Example 9, 4-(3,6-Dichloro-2-fluorobenzoyl)-N-(1-(methylsulfonyl)piperidin-4-yl)-1H-pyrrole-2-carboxamide], for which the values for the IC50 (at ERK5 (setting [3]); in experiment [2]) were 144 nM and 826 nM, respectively.

Take `O=C(Nc1ccncc1)c1cc(C(=O)c2c(F)cccc2Br)c[nH]1` [Example 189, 4-(2-Bromo-6-fluorobenzoyl)-N-(pyridin-4-yl)-1H-pyrrole-2-carboxamide]: the values for the IC50 (at ERK5; in experiment [2]) were 676 nM and 4000 nM, respectively.

With `O=C(Nc1ccc(CN2CCCCC2)nc1)c1cc(C(=O)c2c(Cl)ccc(Cl)c2F)c[nH]1` [Example 284, 4-(3,6-Dichloro-2-fluorobenzoyl)-N-(6-(piperidin-1-ylmethyl)pyridin-3-yl)-1H-pyrrole-2-carboxamide], the IC50 at ERK5 (setting [3]) is 9 nM; in experiment [1], 13 nM.

On to `CN1CCC(NC(=O)c2cc(C(=O)c3c(F)cccc3F)c[nH]2)CC1` [Example 129, 4-(2,6-Difluorobenzoyl)-N-(1-methylpiperidin-4-yl)-1H-pyrrole-2-carboxamide], for which the IC50 came out at 1130 nM on ERK5 (setting [3]) and 6000 nM in experiment [2].

In the case of `O=C(NC1CCNCC1)c1cc(C(=O)c2c(F)cccc2F)c[nH]1` [Example 126, 4-(2,6-Difluorobenzoyl)-N-(piperidin-4-yl)-1H-pyrrole-2-carboxamide], the IC50 on ERK5 (setting [3]) worked out at 1260 nM; in experiment [2], 18300 nM.

Consider `O=C(Nc1ccncc1)c1cc(C(=O)c2c(F)cccc2C(F)(F)F)c[nH]1` [Example 183, 4-(2-Fluoro-6-(trifluoromethyl)benzoyl)-N-(pyridin-4-yl)-1H-pyrrole-2-carboxamide], for which the IC50 at ERK5 (setting [3]) was 1880 nM; in experiment [2] it was 7670 nM.

On to `O=C(Nc1cnc(NCCN2CCOCC2)nc1)c1cc(C(=O)c2c(Cl)ccc(Cl)c2F)c[nH]1` [Example 103, 4-(3,6-Dichloro-2-fluorobenzoyl)-N-(2-((2-morpholinoethyl)amino)pyrimidin-5-yl)-1H-pyrrole-2-carboxamide], for which the IC50 is 36.8 nM at ERK5 (setting [3]) and 135 nM in experiment [1].

For the compound `O=C(Nc1cccnc1)c1cc(C(=O)c2cccc(Cl)c2Cl)c[nH]1` [Example 159, 4-(2,3-Dichlorobenzoyl)-N-(pyridin-3-yl)-1H-pyrrole-2-carboxamide], the values for the IC50 (at ERK5 (setting [3]); in experiment [2]) were 1490 nM and 24000 nM, respectively.

Take `O=C(Nc1ccc(NCCN2CCCCC2)nc1)c1cc(C(=O)c2c(Cl)ccc(Cl)c2F)c[nH]1` [Example 264, 4-(3,6-Dichloro-2-fluorobenzoyl)-N-(6-((2-(piperidin-1-yl)ethyl)amino)pyridin-3-yl)-1H-pyrrole-2-carboxamide]: the results for the IC50 (at ERK5 (setting [3]); in experiment [1]) were 11.1 nM and 142 nM, respectively.

As for `O=C(Nc1ccc(CN2CCOCC2)nc1)c1cc(C(=O)c2c(Cl)ccc(Cl)c2F)c[nH]1` [Example 115, 4-(3,6-Dichloro-2-fluorobenzoyl)-N-(6-(morpholinomethyl)pyridin-3-yl)-1H-pyrrole-2-carboxamide], the IC50 at ERK5 (setting [3]) is 26.5 nM; in experiment [1], 31 nM.

As for `O=C(NC1CCNCC1)c1cc(C(=O)c2c(F)cccc2C(F)(F)F)c[nH]1` [Example 161, 4-(2-Fluoro-6-(trifluoromethyl)benzoyl)-N-(piperidin-4-yl)-1H-pyrrole-2-carboxamide], the IC50 is 2410 nM on ERK5 (setting [3]) and 16700 nM in experiment [2].

On to `O=C(NC1CCOCC1)c1cc(C(=O)c2c(F)cccc2F)c[nH]1` [Example 124, 4-(2,6-Difluorobenzoyl)-N-(tetrahydro-2H-pyran-4-yl)-1H-pyrrole-2-carboxamide], for which the IC50 turned out to be 2250 nM at ERK5 (setting [3]) and 23300 nM in experiment [2].

On to `Cc1cccc(F)c1C(=O)c1c[nH]c(C(=O)NC2CCNCC2)c1` [Example 191, 4-(2-Fluoro-6-methylbenzoyl)-N-(piperidin-4-yl)-1H-pyrrole-2-carboxamide], for which the results for the IC50 (at ERK5 (setting [3]); in experiment [2]) were 1400 nM and 19500 nM, respectively.

On to `O=C(NC1CCNCC1)c1cc(C(=O)c2cccc(Cl)c2Cl)c[nH]1` [Example 160, 4-(2,3-Dichlorobenzoyl)-N-(piperidin-4-yl)-1H-pyrrole-2-carboxamide], for which the IC50 on ERK5 (setting [3]) worked out at 1710 nM; in experiment [2] it was 30000 nM.

As for `CN1CCC(NC(=O)c2cc(C(=O)c3c(F)cccc3Cl)c[nH]2)CC1` [Example 192, 4-(2-Chloro-6-fluorobenzoyl)-N-(1-methylpiperidin-4-yl)-1H-pyrrole-2-carboxamide], the IC50 at ERK5 (setting [3]) turned out to be 199 nM; in experiment [2], 3010 nM.

In the case of `O=C(Nc1cccnc1)c1cc(C(=O)c2c(F)cccc2C(F)(F)F)c[nH]1` [Example 184, 4-(2-Fluoro-6-(trifluoromethyl)benzoyl)-N-(pyridin-3-yl)-1H-pyrrole-2-carboxamide], the IC50 is 5680 nM on ERK5 (setting [3]) and 10300 nM in experiment [2].

As to `CN1CCN(c2ccc(NC(=O)c3cc(C(=O)c4c(F)cccc4Cl)c[nH]3)cn2)CC1` [Example 31, 4-(2-Chloro-6-fluorobenzoyl)-N-(6-(4-methylpiperazin-1-yl)pyridin-3-yl)-1H-pyrrole-2-carboxamide], the IC50 is 91.5 nM on ERK5 (setting [3]) and 1180 nM in experiment [2].

As to `O=C(Nc1cnn(C2CCNCC2)c1)c1cc(C(=O)c2c(F)cccc2Cl)c[nH]1` [Example 52, 4-(2-Chloro-6-fluorobenzoyl)-N-(1-(piperidin-4-yl)-1H-pyrazol-4-yl)-1H-pyrrole-2-carboxamide], the IC50 at ERK5 (setting [3]) was 123 nM; in experiment [2] it was 8810 nM.

In the case of `O=C(Nc1cccnc1)c1cc(C(=O)c2c(F)cccc2F)c[nH]1` [Example 122, 4-(2,6-Difluorobenzoyl)-N-(pyridin-3-yl)-1H-pyrrole-2-carboxamide], the IC50 against ERK5 was found to be 1120 nM; in experiment [2], 26000 nM.

Turning to `O=C(Nc1cncnc1)c1cc(C(=O)c2c(Cl)ccc(Cl)c2F)c[nH]1` [Example 173, 4-(3,6-Dichloro-2-fluorobenzoyl)-N-(pyrimidin-5-yl)-1H-pyrrole-2-carboxamide], the IC50 at ERK5 (setting [3]) is 316 nM; in experiment [2], 508 nM.

With `CN1CCC(NC(=O)c2cc(C(=O)c3c(F)ccc(Cl)c3F)c[nH]2)CC1` [Example 213, 4-(3-Chloro-2,6-difluorobenzoyl)-N-(1-methylpiperidin-4-yl)-1H-pyrrole-2-carboxamide], the results for the IC50 (at ERK5 (setting [3]); in experiment [2]) were 156 nM and 3510 nM, respectively.

Take `CC(=O)N1CCC(NC(=O)c2cc(C(=O)c3c(Cl)ccc(Cl)c3F)c[nH]2)CC1` [Example 7, N-(1-Acetylpiperidin-4-yl)-4-(3,6-dichloro-2-fluorobenzoyl)-1H-pyrrole-2-carboxamide]: the IC50 came to 87.8 nM at ERK5 (setting [3]) and 968 nM in experiment [2].

With `O=C(NC1CCNCC1)c1cc(C(=O)c2c(F)cccc2Cl)c[nH]1` [Example 3, 4-(2-Chloro-6-fluorobenzoyl)-N-(piperidin-4-yl)-1H-pyrrole-2-carboxamide], the results for the IC50 (on ERK5 (setting [3]); in experiment [2]) were 487 nM and 3500 nM, respectively.
